Patent US10829473B2, “Modulators of the cystic fibrosis transmembrane conductance regulator protein and methods of use” (AbbVie Overseas S.Á.R.L., priority 2017, dated 2020)
Like-named read-outs stand apart in the source and are kept apart here.

Molecular target: T1, F508delCFTR (Homo sapiens, UniProt P13569, DEL508-508)
T1 construct: expressed in transfected cells; host or cells: CFBE41o- human lung derived epithelial cells (CFBE41o-F508delCFTR-HRP), doxycycline-inducible
Assay: Cell Surface Expression-Horse Radish Peroxidase (CSE-HRP) Assay
Type: cell-based
Conditions: for Maximum % activity (with co-corrector) / Emax: maximum at any tested concentration; for Emax: read-out: Maximum % activity (without co-corrector)
Outline: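 Corrector compounds were given as 8-point 3-fold series from 20 or 30 μM, with or without a 2 μM co-corrector, for 18-24 h at 33 °C. Surface HRP was read by luminol luminescence as % of positive control; variable-Hill-slope sigmoidal fitting gave EC50 from triplicate plates.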

[1] = test compound alone, without co-corrector, read-out: EC50 (without co-corrector)
[2] = with co-corrector, read-out: EC50 (with co-corrector)

T1 sequence (P13569 with tags, fused parts or gaps DEL508-508): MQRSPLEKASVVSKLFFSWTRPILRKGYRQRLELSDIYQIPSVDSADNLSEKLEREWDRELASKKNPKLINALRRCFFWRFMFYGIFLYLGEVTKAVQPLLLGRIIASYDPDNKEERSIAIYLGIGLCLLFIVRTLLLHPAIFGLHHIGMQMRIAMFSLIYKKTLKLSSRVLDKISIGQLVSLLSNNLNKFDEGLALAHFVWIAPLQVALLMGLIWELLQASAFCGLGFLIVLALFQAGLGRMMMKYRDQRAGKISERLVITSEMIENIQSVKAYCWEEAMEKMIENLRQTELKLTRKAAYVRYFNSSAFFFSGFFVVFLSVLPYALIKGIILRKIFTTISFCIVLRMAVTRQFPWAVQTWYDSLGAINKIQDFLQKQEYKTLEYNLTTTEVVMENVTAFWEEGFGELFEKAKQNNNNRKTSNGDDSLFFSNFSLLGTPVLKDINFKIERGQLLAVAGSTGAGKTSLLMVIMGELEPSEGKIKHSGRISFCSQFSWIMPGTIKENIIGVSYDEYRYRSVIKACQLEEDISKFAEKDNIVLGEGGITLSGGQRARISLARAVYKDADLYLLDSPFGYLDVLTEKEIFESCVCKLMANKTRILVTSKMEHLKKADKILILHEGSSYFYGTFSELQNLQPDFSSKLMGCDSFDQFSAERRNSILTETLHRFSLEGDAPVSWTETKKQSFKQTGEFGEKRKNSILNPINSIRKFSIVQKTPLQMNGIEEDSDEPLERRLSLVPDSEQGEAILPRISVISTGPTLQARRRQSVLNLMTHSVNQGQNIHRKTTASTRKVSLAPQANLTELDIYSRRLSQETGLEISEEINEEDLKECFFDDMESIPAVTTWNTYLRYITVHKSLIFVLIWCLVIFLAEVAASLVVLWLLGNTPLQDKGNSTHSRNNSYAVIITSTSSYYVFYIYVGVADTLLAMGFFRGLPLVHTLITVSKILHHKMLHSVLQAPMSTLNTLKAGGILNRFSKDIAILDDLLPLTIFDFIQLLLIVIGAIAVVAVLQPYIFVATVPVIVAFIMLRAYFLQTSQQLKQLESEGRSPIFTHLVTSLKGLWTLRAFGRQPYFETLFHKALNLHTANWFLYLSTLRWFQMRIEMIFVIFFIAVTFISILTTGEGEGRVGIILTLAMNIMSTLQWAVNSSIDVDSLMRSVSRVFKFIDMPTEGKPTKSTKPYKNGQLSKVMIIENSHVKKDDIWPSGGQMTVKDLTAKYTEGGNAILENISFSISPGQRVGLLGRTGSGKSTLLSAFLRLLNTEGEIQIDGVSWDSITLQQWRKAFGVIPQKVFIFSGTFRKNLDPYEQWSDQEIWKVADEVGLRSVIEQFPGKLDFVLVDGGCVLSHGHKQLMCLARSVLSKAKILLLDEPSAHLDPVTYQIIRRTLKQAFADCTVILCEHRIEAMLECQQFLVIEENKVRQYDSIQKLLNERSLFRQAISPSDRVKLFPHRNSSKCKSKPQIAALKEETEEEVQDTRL

SMILES	EC50 [1] [µM]	Maximum % activity (with co-corrector) (with co-corrector)	EC50 [2] [µM]	Emax (without co-corrector) [%]
O=C(NS(=O)(=O)c1cccc(OC(F)(F)F)c1)C1(c2ccc(Cl)cc2Cl)CC1 [Example III-64, 1-(2,4-dichlorophenyl)-N-[3-(trifluoromethoxy)benzene-1-sulfonyl]cyclopropane-1-carboxamide]	> 10	+ (<150)	> 10	< 50
COC(=O)c1ccc(Cl)cc1S(=O)(=O)NC(=O)C1(c2ccc(Cl)cc2Cl)CC1 [Example III-66, methyl 4-chloro-2-{[l-(2,4-dichlorophenyl)cyclopropane-1-carbonyl]sulfamoyl}benzoate]	> 10	++ (≥150 and <350)	3 to 10	< 50
O=C(O)c1ccccc1S(=O)(=O)NC(=O)C1(c2ccc(Cl)cc2Cl)CC1 [Example III-67]	> 10	+ (<150)	> 10	< 50
O=C(O)c1ccc(Cl)cc1S(=O)(=O)NC(=O)C1(c2ccc(Cl)cc2Cl)CC1 [Example III-68, 4-chloro-2-{[l-(2,4-dichlorophenyl)cyclopropane-1-carbonyl]sulfamoyl}benzoic acid]	> 10	+ (<150)	< 3	< 50
O=C(OCc1ccccc1)N1CCC(S(=O)(=O)NC(=O)C2(c3ccc(Cl)c(Cl)c3)CC2)CC1 [Example III-70, benzyl 4-{[1-(3,4-dichlorophenyl)cyclopropane-1-carbonyl]sulfamoyl}piperidine-1-carboxylate]	> 10	+ (<150)	> 10	< 50
O=C(N1CCc2ccc(S(=O)(=O)NC(=O)C3(c4cccc(Cl)c4)CC3)cc2C1)C(F)(F)F [Example III-72, 1-(3-chlorophenyl)-N-[2-(trifluoroacetyl)-1,2,3,4-tetrahydroisoquinoline-7-sulfonyl]cyclopropane-1-carboxamide]	> 10	+ (<150)	> 10	< 50
O=C(NS(=O)(=O)c1ccc(-n2cccn2)cc1)C1(c2cccc(Cl)c2)CC1 [Example III-73, 1-(3-chlorophenyl)-N-[4-(1H-pyrazol-1-yl)benzene-1-sulfonyl]cyclopropane-1-carboxamide]	> 10	+ (<150)	> 10	< 50
Cc1ccc(S(=O)(=O)NC(=O)C2(c3cccc(Cl)c3)CC2)cc1C [Example III-74, 1-(3-chlorophenyl)-N-(3,4-dimethylbenzene-1-sulfonyl)cyclopropane-1-carboxamide]	> 10	+ (<150)	> 10	< 50
O=C1Cc2cc(S(=O)(=O)NC(=O)C3(c4cccc(Cl)c4)CC3)ccc2N1 [Example III-75, 1-(3-chlorophenyl)-N-(2-oxo-2,3-dihydro-1H-indole-5-sulfonyl)cyclopropane-1-carboxamide]	> 10	+ (<150)	> 10	< 50
CC(=O)N1CCc2cc(S(=O)(=O)NC(=O)C3(c4cccc(Cl)c4)CC3)ccc21 [Example III-76, N-(1-acetyl-2,3-dihydro-1H-indole-5-sulfonyl)-1-(3-chlorophenyl)cyclopropane-1-carboxamide]	> 10	+ (<150)	> 10	< 50
O=C(NS(=O)(=O)C1CCNCC1)C1(c2ccc(Cl)cc2Cl)CC1 [Example III-77, 1-(2.4-dichlorophcnyl)-N-(piperidine-4-sulfonyl)cyclopropane-1-carboxamide]	> 10	+ (<150)	> 10	< 50
CC(=O)N1CCC(S(=O)(=O)NC(=O)C2(c3ccc(Cl)cc3Cl)CC2)CC1 [Example III-78, N-(1-acetylpiperidine-4-sulfonyl)-1-(2,4-dichlorophenyl)cyclopropane-1-carboxamide]	> 10	+ (<150)	> 10	< 50
O=C(CCc1ccccc1)N1CCC(S(=O)(=O)NC(=O)C2(c3ccc(Cl)cc3Cl)CC2)CC1 [Example III-79, 1-(2,4-dichlorophenyl)-N-[1-(3-phenylpropanoyl)piperidine-4-sulfonyl]cyclopropane-1-carboxamide]	> 10	+ (<150)	3 to 10	< 50
CC(C)(C)OC(=O)N1CCC(S(=O)(=O)NC(=O)C2(c3ccc(Cl)cc3Cl)CC2)CC1 [Example III-80, tert-butyl 4-{[1-(2,4-dichlorophenyl)cyclopropane-1-carbonyl]sulfamoyl}piperidine-1-carboxylate]	> 10	+ (<150)	> 10	< 50
COc1cccc(C2(C(=O)NS(=O)(=O)c3ccccc3C)CCOCC2)c1 [Example III-81, 4-(3-methoxyphenyl)-N-(2-methylbenzene-1-sulfonyl)oxane-4-carboxamide]	> 10	+ (<150)	> 10	< 50
Cc1cccc(C2(C(=O)NS(=O)(=O)c3ccccc3C)CCOCC2)c1 [Example III-82, N-(2-methylbenzene-1-sulfonyl)-4-(3-methylphenyl)oxane-4-carboxamide]	> 10	+ (<150)	> 10	< 50
Cc1ccccc1S(=O)(=O)NC(=O)C1(c2cccc(Cl)c2)CCCC1 [Example III-83, 1-(3-chlorophenyl)-N-(2-methylbenzene-1-sulfonyl)cyclopentane-1-carboxamide]	> 10	++ (≥150 and <350)	> 10	< 50
Cc1ccc(S(=O)(=O)NC(=O)C2(c3cccc(Cl)c3)CC2)nc1 [Example III-84, 1-(3-chlorophenyl)-N-(5-methylpyridine-2-sulfonyl)cyclopropane-1-carboxamide]	> 10	+ (<150)	> 10	< 50

Further lines, results first:

EC50 [1] [µM]	Maximum % activity (with co-corrector) (with co-corrector)	EC50 [2] [µM]	Emax (without co-corrector) [%]	SMILES
> 10	++ (≥150 and <350)	3 to 10	< 50	Cc1ccc(S(=O)(=O)NC(=O)C2(c3ccc(Cl)cc3Cl)CC2)cc1 [Example III-37, 1-(2,4-dichlorophenyl)-N-(4-methylbenzene-1-sulfonyl)cyclopropane-1-carboxamide]
> 10	+ (<150)	> 10	< 50	O=C(NS(=O)(=O)c1cc([N+](=O)[O-])ccc1Cl)C1(c2cccc(Cl)c2)CC1 [Example III-55, N-(2-chloro-5-nitrobenzene-1-sulfonyl)-1-(3-chlorophenyl)cyclopropane-1-carboxamide]
> 10	+ (<150)	> 10	< 50	CCOc1ccc2nc(S(=O)(=O)NC(=O)C3(c4cccc(Cl)c4)CC3)sc2c1 [Example III-56, 1-(3-chlorophenyl)-N-(6-ethoxy-1,3-benzothiazole-2-sulfonyl)cyclopropane-1-carboxamide]
> 10	+ (<150)	> 10	< 50	O=C(NS(=O)(=O)c1cccc2c(O)cccc12)C1(c2cccc(Cl)c2)CC1 [Example III-57, 1-(3-chlorophenyl)-N-(5-hydroxynaphthalene-1-sulfonyl)cyclopropane-1-carboxamide]
> 10	++ (≥150 and <350)	3 to 10	< 50	CN(C)c1cccc2c(S(=O)(=O)NC(=O)C3(c4cccc(Cl)c4)CC3)cccc12 [Example III-58, 1-(3-chlorophenyl)-N-[5-(dimethylamino)naphthalene-1-sulfonyl]cyclopropane-1-carboxamide]
> 10	+ (<150)	3 to 10	< 50	O=C(NS(=O)(=O)c1cccnc1)C1(c2ccc(Cl)cc2Cl)CC1 [Example III-59, 1-(2,4-dichlorophenyl)-N-(pyridine-3-sulfonyl)cyclopropane-1-carboxamide]
> 10	++ (≥150 and <350)	3 to 10	< 50	CC1(C)CC1(C(=O)NS(=O)(=O)c1ccccc1)c1ccccc1 (stereo not shown) [Example III-61, N-(benzenesulfonyl)-2,2-dimethyl-1-phenylcyclopropane-1-carboxamide]
> 10	+ (<150)	> 10	< 50	COC(=O)c1ccc(S(=O)(=O)NC(=O)C2(c3ccc(Cl)cc3Cl)CC2)o1 [Example III-62, methyl 5-{[1-(2,4-dichlorophenyl)cyclopropane-1-carbonyl]ulfamoyl}furan-2-carboxylate]
> 10	++ (≥150 and <350)	3 to 10	< 50	O=C(NS(=O)(=O)c1ccc(Br)s1)C1(c2ccc(Cl)cc2Cl)CC1 [Example III-63, N-(5-bromothiophene-2-sulfonyl)-1-(2,4-dichlorophenyl)cyclopropane-1-carboxamide]
3 to 10	+++ (≥350)	3 to 10	50 to 150	O=C(NS(=O)(=O)c1ccccc1)C1(c2cccc(Br)c2)CC1 [Example III-71, N-(benzenesulfonyl)-1-(3-bromophenyl)cyclopropane-1-carboxamide]
